Source: ChEMBL document CHEMBL5365521, “Discovery of the Potent and Selective Inhaled Janus Kinase 1 Inhibitor AZD4604 and Its Preclinical Characterization” (J Med Chem, 2023)
≈ marks a conversion by molar mass, not a printed value. Calls of active or inactive are those of the source. The calls are words filed in the database; no cut-off is given here.

Tests used:
[1] = Distribution coefficient between 1-Octanol and aqueous phosphate buffer, logD of the compound at pH 7.4 by shake-flask method; type: physicochemical
[2] = Solubility in phosphate buffer at pH 7.4; type: physicochemical
[3] = Plasma protein binding in human assessed as free fraction; type: ADME, cell-free
[4] = Inhibition of JAK/STAT signaling pathway in human U-937 cells assessed as inhibition of IL-4 stimulated STAT6 phosphorylation; type: cell-based
[5] = Inhibition of JAK/STAT signaling pathway in human U-937 cells assessed as inhibition of IL-13 stimulated STAT6 phosphorylation; type: cell-based
[6] = Thermodynamic solubility of the compound in phosphate buffer at pH 6.5 measured after 24 hrs by HPLC-MS analysis; type: physicochemical; conditions: read-out: Therm_solubility
[7] = Apparent permeability of compound across apical to basolateral side in human Caco-2 cells at pH 7.4; type: ADME, cell-based; conditions: Caco-2, pH 7.4
[8] = Efflux ratio of apparent permeability across apical to basolateral side in human Caco-2 cells at pH 7.4; type: ADME, cell-based; conditions: Caco-2, pH 7.4
[9] = Volume of distribution at steady state in Han Wistar rat at 0.5 mg/kg, iv; type: ADME, organism-based; conditions: in vivo, read-out: Vdss
[10] = Drug uptake in lung of rat at 0.020 micromol/kg, IT; type: ADME, tissue-based; conditions: in vivo, other, dose 0.02 µmol/kg
[11] = AUC(0 to 24 hrs) in rat at 0.020 micromol/kg, IT; type: ADME; design: dose 0.02 µmol/kg, route it; conditions: in vivo, 0.02 µmol/kg
[12] = target: T1, Tyrosine-protein kinase JAK1 (Homo sapiens, UniProt P23458); assay: Inhibition of N-terminal GST-tagged human recombinant JAK1 (866 to 1154 residues) expressed in insect cells using FITC-C6-KKHTDDGYMPMSPGVA-NH peptide as substrate incubated for 10 mins measured after 90 mins in presence of ATP by caliper mobility shift assay
[13] = Metabolic stability in human hepatocyte assessed as intrinsic clearance measured per 10^6 cells; type: ADME, cell-based; conditions: hepatocytes, read-out: CLH
[14] = Metabolic stability in rat hepatocyte assessed as intrinsic clearance measured per 10^6 cells; type: ADME, cell-based; conditions: hepatocytes, read-out: CLH
[15] = Thermodynamic solubility of the compound in phosphate buffer at pH 7.4 measured after 24 hrs by HPLC-MS analysis; type: physicochemical; conditions: read-out: Therm_solubility
[16] = Drug uptake in lung of rat at 0.06 to 24.79 microg/kg via inhalation measured upto 24 hrs by LC-MS/MS analysis; type: ADME, tissue-based; conditions: in vivo, inhaled_or_intranasal, dose 0.06-24.79 µg/kg
[17] = target: T1, Tyrosine-protein kinase JAK1; assay: Inhibition of GST-tagged human recombinant JAK1 (866 to 1154 residues) expressed in insect cells
[18] = target: T2, Tyrosine-protein kinase JAK3 (Homo sapiens, UniProt P52333); assay: Inhibition of GST-tagged human recombinant JAK3 (781 to 1124 residues) expressed in insect cells
T2 sequence (P52333 whole entry): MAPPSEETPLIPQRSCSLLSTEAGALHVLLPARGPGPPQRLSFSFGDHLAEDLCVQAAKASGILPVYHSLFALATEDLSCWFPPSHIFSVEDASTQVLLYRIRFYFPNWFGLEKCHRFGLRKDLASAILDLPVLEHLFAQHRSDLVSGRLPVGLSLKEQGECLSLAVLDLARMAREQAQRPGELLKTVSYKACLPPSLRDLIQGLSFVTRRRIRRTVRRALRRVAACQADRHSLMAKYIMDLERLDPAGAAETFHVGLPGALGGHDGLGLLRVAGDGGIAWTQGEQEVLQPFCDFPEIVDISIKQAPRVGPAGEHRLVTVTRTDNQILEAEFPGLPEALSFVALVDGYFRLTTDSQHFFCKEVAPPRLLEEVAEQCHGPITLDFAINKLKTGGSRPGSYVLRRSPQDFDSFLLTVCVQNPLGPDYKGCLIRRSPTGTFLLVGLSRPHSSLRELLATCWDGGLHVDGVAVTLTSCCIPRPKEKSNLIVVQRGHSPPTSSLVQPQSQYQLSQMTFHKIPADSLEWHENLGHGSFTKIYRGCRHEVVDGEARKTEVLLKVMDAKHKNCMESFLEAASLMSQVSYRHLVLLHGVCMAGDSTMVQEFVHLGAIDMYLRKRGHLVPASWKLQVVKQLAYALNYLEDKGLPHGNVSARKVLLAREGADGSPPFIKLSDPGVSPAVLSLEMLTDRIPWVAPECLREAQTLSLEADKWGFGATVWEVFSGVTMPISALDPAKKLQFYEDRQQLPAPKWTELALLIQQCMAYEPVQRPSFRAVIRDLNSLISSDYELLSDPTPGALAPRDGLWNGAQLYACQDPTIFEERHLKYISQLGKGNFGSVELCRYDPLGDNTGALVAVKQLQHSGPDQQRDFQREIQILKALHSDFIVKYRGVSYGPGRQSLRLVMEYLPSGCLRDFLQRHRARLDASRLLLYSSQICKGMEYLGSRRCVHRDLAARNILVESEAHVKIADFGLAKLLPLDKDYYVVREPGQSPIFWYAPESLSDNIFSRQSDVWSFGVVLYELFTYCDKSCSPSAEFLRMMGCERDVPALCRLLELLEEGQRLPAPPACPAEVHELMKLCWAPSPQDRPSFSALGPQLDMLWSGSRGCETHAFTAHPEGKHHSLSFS

[19] = target: Non-receptor tyrosine-protein kinase TYK2 (Homo sapiens, UniProt P29597); assay: Inhibition of GST-tagged human recombinant TYK2 (833 to 1187 residues) expressed in insect cells
[20] = Metabolic stability in human liver microsomes assessed as intrinsic clearance; type: ADME, Microsome; conditions: read-out: CLH
[21] = Terminal half life in Han Wistar rat at 1 mg/kg, po; type: ADME, organism-based; conditions: in vivo, read-out: beta t1/2 (converted)
[22] = Volume of distribution at steady state in Han Wistar rat at 1 mg/kg, po or 0.5 mg/kg, iv; type: ADME, organism-based; conditions: in vivo
[23] = Oral bioavailability in Han Wistar rat at 1 mg/kg; type: ADME, organism-based; conditions: in vivo
[24] = Toxicity in human CD4+ T cell assessed as reduction in cell viability measured after 5 days by eFluor780 staining based flow cytometry analysis; conditions: 120 h, dose 1-10000 nM, time 5 day
[25] = test system: CD4+ T cell; assay: Antiinflammatory activity in human CD4+ T cell assessed as reduction in CD25 expression measured after 5 days by eFluor780 staining based flow cytometry analysis; type: functional; conditions: dose 1-10000 nM, time 5.0 day
[26] = test system: Th1 cell; assay: Inhibition of human naive Th1 cell differentiation assessed as decrease in IFNg production measured after 5 days by MSD assay; type: functional, cell-based; conditions: dose 1-10000 nM, time 5.0 day
[27] = test system: Th2 cell; assay: Inhibition of human naive Th2 cell differentiation assessed as decrease in IL-4 production measured after 5 days by MSD assay; type: functional, cell-based; conditions: dose 1-10000 nM, time 5.0 day
[28] = test system: Th17; assay: Inhibition of human memory-derived Th17 cell differentiation assessed as decrease in IL-17 production measured after 5 days by MSD assay; type: functional, cell-based; conditions: time 5.0 day
[29] = test system: Th2 cell; assay: Inhibition of human naive Th2 cell differentiation assessed as decrease in IL-5 production measured after 5 days by MSD assay; type: functional, cell-based; conditions: time 5.0 day
[30] = test system: Th2 cell; assay: Inhibition of human naive Th2 cell differentiation assessed as decrease in IL-13 production measured after 5 days by MSD assay; type: functional, cell-based; conditions: time 5.0 day
[31] = Toxicity in human naive Th1 cell assessed as reduction in cell viability at 1 to 10000 nM; type: cell-based; conditions: 10 µM, dose 1-10000 nM
[32] = Toxicity in human naive Th2 cell assessed as reduction in cell viability at 1 to 10000 nM; type: cell-based; conditions: 10 µM, dose 1-10000 nM
[33] = Toxicity in human memory-derived Th17 cells assessed as reduction in cell viability at 1 to 10000 nM; type: cell-based; conditions: th17, 10 µM, dose 1-10000 nM
[34] = Inhibition of JAK/STAT signaling pathway in human CD4+ T cell assessed as inhibition of IL-4 stimulated STAT6 phosphorylation preincubated for 20 to 60 mins followed by IL-4 stimulation measured after 15 mins by flow cytometry analysis; type: cell-based
[35] = Inhibition of JAK/STAT signaling pathway in human CD14-positive cell monocytes isolated from human PBMC assessed as inhibition of IL-4 stimulated STAT6 phosphorylation preincubated for 20 to 60 mins followed by IL-4 stimulation measured after 15 mins by flow cytometry analysis; type: cell-based
[36] = Inhibition of JAK/STAT signaling pathway in human CD14-positive cell monocytes isolated from human PBMC assessed as inhibition of IL-13 stimulated STAT6 phosphorylation preincubated for 20 to 60 mins followed by IL-13 stimulation measured after 15 mins by flow cytometry analysis; type: cell-based
[37] = target: T1, Tyrosine-protein kinase JAK1; assay: Inhibition of JAK1 in human CD14-positive cell monocytes isolated from human PBMC assessed as reduction in dendritic cells development measured after 5 days by flow cytometry analysis; type: cell-based; conditions: dose 10-1000 nM, time 5.0 day
[38] = target: T1, Tyrosine-protein kinase JAK1; assay: Inhibition of JAK1 in human CD14-positive cell monocytes isolated from human PBMC assessed as reduction in mature dendritic phenotype by measuring CD14 expression level at 100 nM measured after 5 days by CD14 APC staining based flow cytometry analysis; conditions: time 5.0 day
[39] = target: T1, Tyrosine-protein kinase JAK1; assay: Inhibition of JAK1 in human CD14-positive cell monocytes isolated from human PBMC assessed as reduction in mature dendritic phenotype by measuring CD11c expression level at 100 nM measured after 5 days by CD11c PE-CF594 staining based flow cytometry analysis; conditions: time 5.0 day
[40] = 1-octanol/aqueous phosphate buffer, read-out: logD

T1 sequence (P23458 whole entry, the tested form may be a part): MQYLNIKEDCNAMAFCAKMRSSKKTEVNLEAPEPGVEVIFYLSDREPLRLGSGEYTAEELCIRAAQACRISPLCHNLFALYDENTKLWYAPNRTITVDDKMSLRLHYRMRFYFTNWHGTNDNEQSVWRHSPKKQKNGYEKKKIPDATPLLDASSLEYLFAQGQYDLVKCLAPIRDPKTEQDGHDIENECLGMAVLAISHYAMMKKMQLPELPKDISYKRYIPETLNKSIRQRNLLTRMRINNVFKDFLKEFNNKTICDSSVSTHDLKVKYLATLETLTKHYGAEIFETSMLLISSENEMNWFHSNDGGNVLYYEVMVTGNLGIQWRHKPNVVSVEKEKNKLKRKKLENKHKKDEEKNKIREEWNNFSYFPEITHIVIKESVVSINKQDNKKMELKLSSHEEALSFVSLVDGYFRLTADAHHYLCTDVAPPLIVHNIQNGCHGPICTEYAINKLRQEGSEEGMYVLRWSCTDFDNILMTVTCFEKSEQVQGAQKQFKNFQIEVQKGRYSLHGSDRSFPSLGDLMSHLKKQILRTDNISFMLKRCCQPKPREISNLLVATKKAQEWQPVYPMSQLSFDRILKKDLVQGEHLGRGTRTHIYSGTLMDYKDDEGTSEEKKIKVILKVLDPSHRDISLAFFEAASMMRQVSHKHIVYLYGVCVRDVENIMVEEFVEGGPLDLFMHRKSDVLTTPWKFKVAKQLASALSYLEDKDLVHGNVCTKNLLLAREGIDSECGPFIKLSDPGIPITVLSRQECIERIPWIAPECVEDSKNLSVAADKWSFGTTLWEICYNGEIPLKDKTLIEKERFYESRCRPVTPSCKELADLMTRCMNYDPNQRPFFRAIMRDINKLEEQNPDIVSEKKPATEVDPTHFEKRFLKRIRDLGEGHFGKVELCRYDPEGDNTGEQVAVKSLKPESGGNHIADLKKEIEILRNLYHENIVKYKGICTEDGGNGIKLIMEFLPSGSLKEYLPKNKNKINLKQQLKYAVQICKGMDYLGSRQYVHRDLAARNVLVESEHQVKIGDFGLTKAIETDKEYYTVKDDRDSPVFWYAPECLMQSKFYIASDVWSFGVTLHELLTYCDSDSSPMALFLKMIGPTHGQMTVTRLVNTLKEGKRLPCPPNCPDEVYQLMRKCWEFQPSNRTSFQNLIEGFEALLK
Sequence of Non-receptor tyrosine-protein kinase TYK2 (P29597 whole entry, the tested form may be a part): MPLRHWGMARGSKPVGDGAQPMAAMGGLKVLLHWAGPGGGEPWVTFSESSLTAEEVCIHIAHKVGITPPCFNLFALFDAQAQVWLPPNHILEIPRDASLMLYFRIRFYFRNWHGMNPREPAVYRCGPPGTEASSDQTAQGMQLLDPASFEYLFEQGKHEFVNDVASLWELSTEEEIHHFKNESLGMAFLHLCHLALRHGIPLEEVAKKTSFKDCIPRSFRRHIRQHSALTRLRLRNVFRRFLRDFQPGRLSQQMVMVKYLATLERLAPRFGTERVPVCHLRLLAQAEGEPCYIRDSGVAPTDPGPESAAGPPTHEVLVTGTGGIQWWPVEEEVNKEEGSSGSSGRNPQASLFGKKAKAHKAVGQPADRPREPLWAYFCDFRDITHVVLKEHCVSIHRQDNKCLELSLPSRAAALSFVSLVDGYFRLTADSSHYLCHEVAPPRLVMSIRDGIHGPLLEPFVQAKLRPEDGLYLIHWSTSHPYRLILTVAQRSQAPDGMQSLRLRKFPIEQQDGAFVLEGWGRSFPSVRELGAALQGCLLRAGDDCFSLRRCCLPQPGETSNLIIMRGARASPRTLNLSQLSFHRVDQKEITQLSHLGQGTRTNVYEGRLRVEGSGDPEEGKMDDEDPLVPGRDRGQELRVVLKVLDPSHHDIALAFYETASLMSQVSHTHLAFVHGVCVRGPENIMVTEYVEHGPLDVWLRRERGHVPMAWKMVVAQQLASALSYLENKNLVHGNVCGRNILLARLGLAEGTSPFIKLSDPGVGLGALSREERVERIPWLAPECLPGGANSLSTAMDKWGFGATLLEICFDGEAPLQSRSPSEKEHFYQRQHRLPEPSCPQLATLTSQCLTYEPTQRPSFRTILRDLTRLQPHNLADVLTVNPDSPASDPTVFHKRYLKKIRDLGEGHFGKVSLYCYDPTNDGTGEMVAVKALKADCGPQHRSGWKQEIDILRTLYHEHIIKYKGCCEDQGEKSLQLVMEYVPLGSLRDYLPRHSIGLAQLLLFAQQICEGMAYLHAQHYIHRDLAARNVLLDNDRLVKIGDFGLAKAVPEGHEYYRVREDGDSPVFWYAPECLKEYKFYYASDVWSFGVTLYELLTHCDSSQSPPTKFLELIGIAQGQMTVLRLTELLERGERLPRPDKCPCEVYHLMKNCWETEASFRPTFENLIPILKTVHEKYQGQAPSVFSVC

Structure (SMILES) | logD [1, 40] | solubility [2] | fraction unbound [3] | IC50 [4] | IC50 [5] | Papp A→B [7] | Vd [9] | Drug uptake [10] | AUC(0-t) [11] | Activity [24] | Activity [25] | inhibition [26] | inhibition [27] | inhibition [28] | inhibition [29] | inhibition [30] | Activity [31] | Activity [32] | Activity [33] | IC50 [34] | further results
CC[C@H](C(=O)Nc1cccc2c(-c3nc(Nc4cccc(S(C)(=O)=O)c4F)ncc3C)c[nH]c12)N1CCN(C)CC1 | 2.8 | 11 µM (≈ 6.38 µg/mL) | 0.05 | 15 nM | 22 nM | 2.7 ×10⁻⁶ cm/s | 9 L/kg | Active | 1.6 µM·h |  |  |  |  |  |  |  |  |  |  |  | solubility thermodynamic at 24 h [6]: 104 µM (≈ 60.3 µg/mL); efflux ratio [8]: 3.6
CC[C@H](C(=O)Nc1cccc2c(-c3nc(Nc4cccc(S(C)(=O)=O)c4F)ncc3F)c[nH]c12)N1CCN(C)CC1 | 3.3 | 9 µM (≈ 5.25 µg/mL) | 0.05 | 27 nM | 43 nM |  |  |  |  |  |  |  |  |  |  |  |  |  |  |  | IC50 [12]: ≤ 3 nM
COC[C@H](C(=O)Nc1cccc2c(-c3nc(Nc4cccc(S(C)(=O)=O)c4F)ncc3F)c[nH]c12)N1CCN(C)CC1 [LONDAMOCITINIB] |  | 6 µM (≈ 3.6 µg/mL) | 0.08 | 24 nM |  | 2.7 ×10⁻⁶ cm/s | 11 L/kg | Active | 8.6 µM·h | Dose-Dependent Effect | Dose-Dependent Effect | Dose-Dependent Effect | Dose-Dependent Effect | Dose-Dependent Effect | Dose-Dependent Effect | Dose-Dependent Effect | Non-Toxic | Non-Toxic | Non-Toxic | 21 nM | hepatocyte CLint [13]: 1.3 µL/min/1e6 cells; hepatocyte CLint [14]: 6.9 µL/min/1e6 cells; logD ([1]; octanol/water): 2.6; solubility thermodynamic at 24 h [15]: 7 µM (≈ 4.2 µg/mL); Drug uptake [16]: Active; IC50 [17]: 0.54 nM; IC50 [18]: > 10000 nM; IC50 [19]: 657 nM; microsomal CLint [20]: 25 µL/min/mg; half-life [21]: 4.7 h; Vdss [22]: 9.9 L/kg; bioavailability [23]: 44%; IC50 [35]: 20 nM; IC50 [36]: 28 nM; inhibition [37]: Dose-Dependent Effect; Activity [38]: Active; Activity [39]: Active
C[C@@H]1CCN(C(=O)CC#N)C[C@@H]1N(C)c1ncnc2[nH]ccc12 [TOFACITINIB] |  |  |  |  |  |  |  |  |  | Dose-Dependent Effect | Dose-Dependent Effect | Dose-Dependent Effect | Dose-Dependent Effect | Dose-Dependent Effect | Dose-Dependent Effect | Dose-Dependent Effect | Non-Toxic | Non-Toxic | Non-Toxic | 53 nM | IC50 [35]: 65 nM; IC50 [36]: 57 nM
